Measured values taken from patent US5202417A, “60-amino-acid polypeptide” (Takeda Chemical Industries, Ltd., priority 1989, dated 1993).

How the values were obtained:
anti-PS2 antibodies = assay: immunoreactivity to anti-PS2 antibodies; type: binding
[1] = isoelectric point of the purified polypeptide; type: physicochemical
[2] = test system: IgG fraction containing anti-hEGF antibody; assay: enzyme immuno assay (EIA) for human EGF, plate sensitized with IgG fraction containing anti-hEGF antibody; type: binding, rabbit; settings: culture solutions of MCF7, MKN-45 and KATO-III; different from EGF
Text: In order to examine the relationship between the MCF7 cells thus secreting various growth factors and epidermal growth factor (hereinafter referred to as EGF) which is a kind of growth factor, we established an enzyme immuno assay (hereinafter referred to as EIA) which can assay human EGF, and tried to determine it in the culture solutions of MCF7 and human gastric cancer cells MKN-45 and KATO-III. […] It is conceivable that this substance was detected because another antibody was present in the enzyme immuno assay in addition to an antibody against EGF.
An assay system used for detecting the polypeptide of the present invention was prepared in the following manner.
200 μg/ml of an IgG fraction (purified from rabbit serum) containing anti-hEGF antibody was added to 50 mM of Tris-HCl (pH 8.0), and the mixture was poured to a microplate having 96 wells (Sumitomo Bakelite Co.) in an amount of 100 μl/well. After the reaction was conducted at 37° C. for 3 hours, the solution was discarded. Buffer A was further added thereto and blocking was carried out. […]
A plate was washed once with 200 μl/well of buffer A just prior to the use thereof. […] The resultant product was transferred to a Dynamic™ microfluor (for fluorescent enhancer), and the fluorescence was measured with an immunoreader (365 nm excitation, 415 nm fluorescence measurement). […]

In the case of “immunoreactive polypeptide: 60-amino-acid polypeptide, N-terminus EAQ, secreted by cancer cells MCF-7, MKN-45 or KATO-III; part of the PS2 precursor protein (EAQTETCTVAPRERQNCGFPGVTPSQCANKGCCFDDTVRGVPWCFYPNTIDVPPEEECEF; UniProt P04155 25-84, looked up)”, the “immunoreactivity to anti-PS2 antibodies” value (anti-PS2 antibodies) is reported as “immunoreactive to anti-PS2 antibodies”, the isoelectric point [1] is reported as 4.3 and the “immunoreactivity in the EIA” value [2] is reported as “immunoreactive to the EIA”.
